The source of these data is patent US20130231312A1, “TREATMENT OF TYPE II DIABETES AND DIABETES-ASSOCIATED DISEASES WITH SAFE CHEMICAL MITOCHONDRIAL UNCOUPLERS” (priority 2010, published 2013).

Structures are written as SMILES.

Series [1] in a line: Chronic I.P. CSAA injection, high-fat diet induced body weight gain and food uptake. Format: in vivo. Conditions: daily I.P. 100 μg/mouse. An excerpt: (§1) The 5-week old db/db mice and the C57/B16 mice were purchased from Jackson Laboratory and housed in the vivarium of UMDNJ-RWJMS. […] For food intake experiments, sets of mice were housed individually in metabolic cages (Nalgene) with free access to food and water. Food cups and food scattered in the runway to the cups were weighed daily to determine food intake. For mouse tissue studies, mice were sacrificed by decapitation, and the tissues of interesting were obtained.
The other 12 mice were injected daily with vehicle only (PBS). The body weight was measured twice a week and the net body weight gain for each mouse was determined. The average weight gain in each group over the experimental period was plotted. […] The food uptake levels were measured daily with metabolic cages from the day 15 to day 29 and the average daily food uptake of each group was calculated.

Series [2] relates to C57/B16 mice fed with high-fat diet. Put plainly: Insulin tolerance assay after chronic oral CSAA. Format: in vivo, mouse. The following applies: high-fat diet containing 1500 ppm CSAA for 9 weeks. As for the experimental part:
(§2) For glucose tolerance tests, mice were starved overnight and injected I.P. with 20% glucose at a dose of 2 g/kg body weight. Blood was obtained from the tail at time points 0, 15, 30, 60, 90, and 120 min for glucose measurement. For insulin tolerance tests, mice were starved for 5 h and injected I.P. with 0.75 U/kg body weight recombinant human insulin (Eli Lilly). Blood was obtained from the tail at time points 0, 15, 30, 60, 90, and 120 min for glucose measurement.

The subject of series [3] is AMPK. Briefly: Immunoblotting of phosphorylated AMPK in liver after chronic oral CSAA. Conditions: mice under high-fat diet. Type of series: in vivo, mouse. As for the experimental part: (§3) Immunoblotting assays were carried out according to standard protocol. The sources of the antibodies are: AMPK antibody (Cell Signaling Technology), Thr-172-phosphorylated AMPK antibody (Cell Signaling Technology), Ran antibody (C-20, Santa Cruz).
A general note: Immunoblotting shows a protein as a band on a membrane.

Series [4] relates to high-fat diet induced pre-diabetic C57/B16 mice. Briefly: Acute I.P. treatment, blood glucose in high-fat diet induced pre-diabetic mice. Type of series: in vivo. Conditions: 100 microgram/mouse I.P., starved 5 hours.
Text: as §1
(§4) Blood glucose was determined using OneTouch UltraSmart blood glucose monitoring system (Lifescan), and the insulin levels were measured by ultra sensitive mouse insulin ELISA kit (Crystal Chem Inc.), following the manufacturer's instructions.

Series [5] deals with db/db mice. Put plainly: Acute I.P. CSAA treatment, blood glucose in diabetic db/db mice. Type of series: in vivo. Conditions: 100 microgram/mouse I.P.
Text: as §1, §4

Series [6] deals with C57/B16 mice. Put plainly: Glucose uptake assay with 3H 2-deoxyglucose in tissues. Type of series: in vivo. The following applies: acute 100 microgram/mouse I.P., 3H-2-deoxyglucose 1.5 hours later.
Protocol: 1.5 hours later, ^3H-2-deoxyglucose (0.5 microcurrie/gram of body weight) was injected through I.P. route. 30 minutes later, mice were treated with anesthetics and perfused with PBS. Mice were then sacrificed and tissue was extracted for measurement of ^3H-2-deoxyglucose accumulation (normalized against tissue mass).
Series [7] relates to mitochondria isolated from mouse liver. Put plainly: Mitochondrial uncoupling assay with isolated mitochondria (oxygen consumption, Oxygraph). Type of series: biochemical. The following applies: oligomycin 5 μg/ml. On the procedure: For mitochondrial uncoupling assay with isolated mitochondria: Mitochondria were isolated from mouse liver. 1.0 mg of mitochondria in a volume of 0.9 ml of respiration buffer was analyzed for oxygen consumption in the presence of mitochondrial substrate as well as the various inhibitors with an Oxygraph System (Hansatech Instrument, Norfolk, UK). The final concentrations of the various chemicals added into the respiration buffer are as follows: succinate, 5 mM; ADP, 125 μM; oligomycin, 5 μg/ml; KCN, 2 mM)

Series [8] has as its system hepatocytes. Conditions: high-fat diet containing 1500 ppm CSAA for 10 weeks.
Text: For mouse liver histological study, the mice sacrificed by decapitation. Liver slices were fixed with buffered formalin (Surgipath Medical Industries, Inc.) and embedded in paraffin. Tissue slides were stained with hematoxylin and eosin (H&E) for detection of lipid droplets in tissue samples. Pictures were taken with a Universal Microscope Axioplan 2 imaging system (Carl Zeiss) with phase contrast objectives.
For series [9], the system named is C57/B16 mice fed with high-fat diet. Put plainly: Glucose tolerance assay after chronic oral CSAA. Format: in vivo, mouse. Conditions: high-fat diet containing 1500 ppm CSAA for 9 weeks. As for the experimental part: as §2
Series [10] deals with NIH-3T3 cells. Briefly: Cellular oxygen consumption (BD Oxygen Biosensor System). Format: cell-based, mouse. On the procedure: (§5) BD™ Oxygen Biosensor System was used to measure the cellular oxygen consumption. NIH-3T3 cells were cultured overnight to log phase, then seeded in oxygen biosensor 96-well plate at the density of 20000 cells per well in DMEM medium. […] Oxygen consumptions (decrease in oxygen concentrations) were indicated by generation of fluorescent signals which were initially quenched by oxygen. Cellular ATP concentrations were measured with the ENLITEN® ATP Assay System and normalized against cell number.

The subject of series [11] is NIH-3T3 cells. Put plainly: Mitochondrial membrane potential (TMRE staining) in cultured cells. Type of series: cell-based, mouse. On the procedure:
For mitochondrial uncoupling activity analysis with the cultured cells, the NIH-3T3 were culture to 90% confluence. […] The cells were then treated with TMRE (Tetramethylrhodamine ethyl ester perchlorate) to a final concentration of 100 nM, incubate for 15 minutes. The cells were then washed twice with PBS, and the pictures were taken under microscope.

Series [12] has as its system NIH-3T3 cells. Briefly: Cellular ATP concentrations (ENLITEN ATP Assay System). Type of series: cell-based, mouse. Conditions: CSAA 1 μM. On the procedure:
as §5

Series [13] relates to C57/B16 mice fed with high-fat diet. Put plainly: Chronic oral CSAA treatment of high-fat diet induced pre-diabetic mice. Type of series: in vivo, mouse.
Text: as §1, §4

For series [14], the system named is AMPK. Briefly: Immunoblotting of phosphorylated AMPK in liver after acute I.P. CSAA. Type of series: in vivo. Conditions: mouse liver, acute 100 microgram/mouse I.P., 0, 2, 4 hours. On the procedure: as §3
The subject of series [15] is db/db mice. Put plainly: Chronic oral CSAA treatment of db/db diabetic mice. Format: in vivo, mouse.
Text: as §1, §4

The subject of series [16] is mitochondria. Conditions: cited from earlier work.
For series [17] the following is noted: among the first 100,000 persons treated; cited from earlier work.
The mark [18] stands for this setting: stated for both mouse strains (FIG. 1).
Setting [19] is: NIH-3T3 cells, 2 hours treatment, TMRE.
Setting [20] is: high-fat diet containing 1500 ppm CSAA for 8 weeks.

In the case of `NCCO.O=C(Nc1ccc([N+](=O)[O-])cc1Cl)c1cc(Cl)ccc1O` [CSAA, 5-chloro-salicyl-(2-chloro-4-nitro) anilide 2-aminoethanol salt], the “food uptake rate versus vehicle group” value in series [1] (day 15 to day 29) is given as “higher food uptake rate”. Besides, the “weight gain induced by high-fat diet” value in [1] (mice aged 8 months on high-fat diet) is “reduces the weight gain”. Besides, the “insulin sensitivity by insulin tolerance assay” value in series [2] is on record as “significantly increased insulin sensitivity”. In addition, the “AMPK activity in liver” value in [3] is “chronically elevated”. For the same compound, the “effect on blood glucose concentration (hypoglycemic activity)” value in series [4] is “dramatic decrease in blood glucose concentration”. In addition, in series [5] (setting [18]), the “time after treatment at which blood glucose concentrations were lowered” value was ~1 h and the “time until which blood glucose lowering remained effective” value is “about 4 hours”. The “reduction in blood glucose as compared to the control” value in [5] (db/db mice, starved 5 hours) is listed as 30%. For the same compound, the “glucose uptake rates in liver, muscles, kidney, and lungs” value in [6] is “significantly increased”. Besides, in series [7], the “mitochondrial oxygen consumption in the presence of oligomycin” value is “still effectively promoted mitochondrial oxygen consumption”. In [8], the “lipid load in hepatocytes” value is listed as “dramatically reduced”. Further, in series [9], the “insulin sensitivity by glucose tolerance assay” value is listed as “significantly increased insulin sensitivity”. Besides, the cellular oxygen consumption result in series [10] (CSAA 1 μM) is given as “dramatically stimulated”. Besides, the “effect of oligomycin co-treatment on CSAA-stimulated oxygen consumption” value in series [10] (CSAA 1 μM and oligomycin 5 μg/ml) was “did not significantly affect”. Besides, the “earliest time at which dissipation of mitochondrial membrane potential is seen” value in series [11] (NIH-3T3 cells, 2 μM CSAA) turned out to be 5 min. For the same compound, in series [11] (setting [19]), the “concentration at which reduction of mitochondrial membrane potential starts” value is 500 nM and the “concentration for full uncoupling of mitochondria” value is reported as “around 5 micromolar”. Besides, in [11] (cultured cells), the “concentration range at which mitochondria are uncoupled in cultured cells” value is “high nanomolar to low micromolar range”. Also, in [12], the “steady-state ATP concentrations in cells” value is listed as “does not affect”. In [13] (setting [20]), the fasting blood glucose result was “completely prevented the increase of fasting blood glucose” and the “fasting insulin concentrations versus control group” value is listed as “significantly lower”. The food uptake result in series [13] (high-fat diet containing 1500 ppm CSAA, weeks 7 to 8) was “no effect”. Besides, in series [13] (high-fat diet with oral CSAA (data not shown)), the “body weight and adiposity versus control mice” value is reported as “not different from the control mice”. The “levels of the phosphorylated AMPK” value in [14] is listed as “dramatically increased”. For the same compound, the “food intake rates versus mice fed normal food” value in series [15] (1500 ppm in food) was “not significantly different”. Further, the “body weight and adiposity versus control mice” value in [15] (oral CSAA (data not shown)) was “not different from the control mice”. Further, the “fasting blood glucose levels versus non-CSAA treated mice at later time” value in [15] (oral treatment beyond two weeks (data not shown)) is reported as “remained significantly lower”. The fasting blood glucose entry in [15] (two week oral treatment, 1500 ppm in AIN-93M food) is “reduced the fasting blood glucose of the db/db mice to almost normal levels”.
In the case of `O=[N+]([O-])c1ccc(O)c([N+](=O)[O-])c1` [DNP, 2,4-dinitrophenol], the “concentrations at which the mitochondrial uncoupler functions” value in [16] is given as “mini molar concentrations”. For the same compound, in series [17], the “fatalities due to hyperthermia” value is reported as “two fatalities”.
